Source: US20240058265A1, “TREATMENT OF OCULAR DISEASES USING ENDOTHELIN RECEPTOR ANTAGONISTS” (Perfuse Therapeutics, Inc., priority 2021, published 2024)

Columns and labels:
[1] = biological target: T1, ETA receptor (Homo sapiens, UniProt P25101); assay: Functional potency for ETA receptor; format: biochemical
T1 sequence (P25101 21-427): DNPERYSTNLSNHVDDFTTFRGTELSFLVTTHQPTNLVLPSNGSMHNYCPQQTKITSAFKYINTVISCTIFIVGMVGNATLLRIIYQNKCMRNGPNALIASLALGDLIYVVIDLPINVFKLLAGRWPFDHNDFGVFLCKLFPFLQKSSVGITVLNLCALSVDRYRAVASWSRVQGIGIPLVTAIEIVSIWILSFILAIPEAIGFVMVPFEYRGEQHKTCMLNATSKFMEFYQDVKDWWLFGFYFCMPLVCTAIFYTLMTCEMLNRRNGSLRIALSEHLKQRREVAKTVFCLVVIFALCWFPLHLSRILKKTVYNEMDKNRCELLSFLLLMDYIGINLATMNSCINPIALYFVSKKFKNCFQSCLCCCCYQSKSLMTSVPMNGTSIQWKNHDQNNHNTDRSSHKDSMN
Source text: (§1) In the above table, the physicochemical data, e.g., solubility, were obtained following standard protocols known in the field (see, e.g., Reis et al., Mini Rev Med Chem., 2010, 10(11):1071-6; Avdeef et al., Expert Opin Drug Metab Toxicol., 2005, 1(2):325-42; Bharate et al., Comb Chem High Throughput Screen., 2016, 19(6):461-9; and Jain et al., J Pharm Biomed Anal., 2013, 86:11-35.); and the biochemical data, i.e., potency for ETA/ETB, were obtained following the protocols known in the field (see, e.g., Kirkby et al., Br J Pharmacol., 2008, 153(6):1105-19; and Maguire et al., Br J Pharmacol., 2014, 171(24):5555-72.).

[2] = Permeability (PAMPA); format: in vitro ADME
Source text: as §1

[3] = system: ET-1 induced vasospasm; assay: Rabbit ET-1 induced vasospasm model, retinal blood flow (OCT-A, FA); format: in vivo, rabbit (Oryctolagus cuniculus)
Experimental: Adult, male Dutch-belted rabbits were given a 20 μl intravitreal injection (IVT) of 0.5 μg of ET-1 followed by a 20 μl intravitreal injection of 10-100 μg Edonentan given 30 min after the ET-1 administration. IOP, optical coherence tomography—angiography (OCT-A), and fluorescein angiograms (FA) were performed at pre-specified time points (30, 45, 60, and 75 min) following ET-1 and Edonentan administration to assess retinal blood flow changes induced by ET-1+/−Edonentan. […] To evaluate the effect of retinal blood flow following intravitreally administered endothelin-1 (ET-1) followed by the antagonist Edonentan in the rabbit, rabbits (Oryctolagus cuniculus) were given a 20 μL intravitreal injection of ET-1 in the left eye followed by a 20 μL intravitreal injection of Edonentan at 2 (or 3) different doses (e.g. 0.1 μg, 0.5 μg, 2.5 μg). The pulse ox, tonometry, optical coherence tomography angiography (OCTA), fluorescein angiography (FA) and retinal leakage scoring were performed for evaluation.

[4] = system: elevated IOP rat eye; assay: Morrison's rat model of glaucoma (RGC counts, PERG); format: in vivo, Brown Norway rats; conditions: topical eye drops 100 μg per dose, five days a week, four weeks
Source text: Adult male and female retired breeder Brown Norway rats (approximate age groups of 8 to 11 months) were obtained from Envigo (Indianapolis, IN). Baseline IOP measurements and pattern electroretinogram (PERG) amplitudes were collected prior to the surgery for elevation of IOP (to ensure that the IOP and PERG amplitudes were in the expected range of values). IOP was elevated in one eye (left eye) of the rats, while the corresponding right eyes served as contralateral controls. The Morrison method to elevate IOP in rats was carried out by injection of 50 μL of hypertonic saline through the episcleral veins to sclerose the trabecular meshwork. IOP was measured twice a week throughout the entire duration of the experiment. […] After detecting an elevation of IOP for two consecutive days, topical administration of eye drops ([…] (100 μg,) per dose of the tested compounds in the IOP elevated eye) was commenced and carried out for five days a week for a total of four weeks. In the 4th week of treatment, PERG analysis was carried out and rats were sacrificed by an overdose of pentobarbital (fatal-Plus). Aqueous humor was collected from the rat eyes, frozen and shipped for analysis. Retinal flat mounts were prepared, immunostained with the RGC marker, Brn3a antibody and surviving RG-Cs were counted in two eccentricities (central and peripheral).
For this study, the Morrison's model was used to induce ocular hypertension in adult male retired breeder Brown Norway rats as previously described by. Morrison et al., (Morrison J C, Moore C G, Deppmeier L M, Gold B G, Meshul C K, Johnson E C. A rat model of chronic pressure-induced optic nerve damage. Exp Eye Res. 1997;64(1):85-96).
The immunostained retinal flat mounts were obtained to measure the retinal ganglion cell (RGC) counts. To obtain immunostained retinal flat mounts, the animals were euthanized after the treatments and then their eyes were enucleated. The eye cups were fixed overnight at 4° C. in 4% paraformaldehyde (PFA) and retinal flat mounts were prepared for collecting images. The retinal ganglion cell (RGC) counting was conducted using the images of immunostained retinal flat mounts. The images were uploaded to ImageJ, a photo editor designed for biology research (Rasband, 1997-2018) and the labeled retinal ganglion cells were counted manually in two eccentricities (central and peripheral).
Pattern ERG (PERG) was used to assess the RGC function. […] Briefly, PERG signals were acquired from a DTL-plus electrode placed on the lower part of the corneal surface and the PERG waves were analyzed using the EMWIN software (LKC). The difference between the amplitude of the major positive (P1) and negative (N2) waves were calculated to decipher the PERG amplitude.

[5] = Pharmacokinetics after topical or oral administration in the rat; format: in vivo, Brown Norway rats
Experimental: After the administrations, the animals (N=2) were euthanized at different time points (e.g. 4 and 8 hours) and tissues were collected for analysis. List of tissues collected include plasma, retina/retinal pigment epithelium (RPE)/choroid, vitreous humor and aqueous humor.

Functional potency for ETA and ETB receptors (rating) [1]: High potency
Specificity ETA vs ETB (rating) [1]: High specificity
Permeability (rating) [2]: Mid-High
Detection in aqueous humor after oral administration ([5]; oral, 17 mg/kg): detectable
Detection in retina/RPE/choroid and vitreous humor after oral administration ([5]; oral, 1.7 and 17 mg/kg): detectable
Detection in retina/RPE/choroid, aqueous humor and vitreous humor ([5]; topical eye drop 100 μg, 4 and 8 hours): detected
SMILES: Cc1onc(NS(=O)(=O)c2ccccc2-c2ccc(-c3ncco3)cc2CN(C)C(=O)CC(C)(C)C)c1C [Edonentan, N-[[2′-[[(4,5-dimethyl-3-isoxazolyl)amino]sulfonyl]-4-(2-oxazolyl)[1,1′-biphenyl]-2-yl]methyl]-N,3,3-trimethylbutanamide]
Fluorescein dye velocity as an index of retinal blood flow, dose dependence ([3]; 0.1 μg ET-1 and 0.1, 0.5, 2.5 or 10 μg Edonentan IVT (FIG. 8A, 8B)): dose-response
Effect of ET-1 (retinal vasoconstriction), fluorescein angiography ([3]; 0.5 μg ET-1 IVT, then 10 μg Edonentan IVT, within 90 min (60 min after Edonentan)): reversed
Fluorescein dye velocity as an index of retinal blood flow ([3]; healthy rabbits, 0.5 μg ET-1 and 10 μg antagonist IVT (FIG. 3)): improved to control levels
RGC function (PERG) [4]: maintained RGC function
RGC loss (RGC counts, retinal flat mounts) [4]: prevented RGC loss
